The source of these data is ChEMBL document CHEMBL1201862, “PubChem BioAssay data set” (2004).

Calls of active or inactive are those of the source.

By AC50 is commonly meant the concentration giving half of the maximal activity seen.

For one assay, the target named is Prothrombin (Homo sapiens, UniProt P00734). Put plainly: Thrombin 1536 HTS Dose Response Confirmation. [Related pubchem assays: 1046 (Thrombin 1536 HTS; hits were confirmed in this assay)]. It is filed as functional.
For another assay, the system named is Streptococcus. Put plainly: GAS bacterial viability reduction – luminescence, BacTiter-Glo, strain UMAA2166, counter-screen for streptokinase expression inhibitor project, dose response (AID 2477). It is filed as functional, organism-based. On the technique in general: Counterscreens check selectivity or assay interference.
The target in the next assay is T1, Streptokinase A (Streptococcus pyogenes serotype M1, UniProt P10520).
T1 sequence (P10520 whole entry): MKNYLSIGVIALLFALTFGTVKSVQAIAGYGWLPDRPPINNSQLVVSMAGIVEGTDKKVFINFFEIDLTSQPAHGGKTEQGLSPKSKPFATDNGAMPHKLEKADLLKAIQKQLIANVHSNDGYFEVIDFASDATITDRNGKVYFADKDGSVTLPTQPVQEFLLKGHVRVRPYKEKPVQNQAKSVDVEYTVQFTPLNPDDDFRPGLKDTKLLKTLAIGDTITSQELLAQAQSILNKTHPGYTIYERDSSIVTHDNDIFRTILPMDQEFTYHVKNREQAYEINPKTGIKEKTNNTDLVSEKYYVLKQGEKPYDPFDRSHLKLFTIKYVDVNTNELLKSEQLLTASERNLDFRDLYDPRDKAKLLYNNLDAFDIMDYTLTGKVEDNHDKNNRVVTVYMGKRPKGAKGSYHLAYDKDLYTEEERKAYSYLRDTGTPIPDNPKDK
As to the kind of experiment: Absorbance Microorganism-Based Dose Response Follow up to Identify Inhibitors of Streptokinase Expression. [Related pubchem assays: 1677 (Project Summary), 1915, 1914, 1902 (Retest at Dose), 1900 (Counter Screen), 1662 (Primary HTS)]. It is filed as functional, Streptococcus pyogenes M1 GAS.

In assay [1] the target is T2, Long-chain-fatty-acid--AMP ligase FadD28 (Mycobacterium tuberculosis, UniProt P9WQ59).
T2 sequence (P9WQ59 whole entry): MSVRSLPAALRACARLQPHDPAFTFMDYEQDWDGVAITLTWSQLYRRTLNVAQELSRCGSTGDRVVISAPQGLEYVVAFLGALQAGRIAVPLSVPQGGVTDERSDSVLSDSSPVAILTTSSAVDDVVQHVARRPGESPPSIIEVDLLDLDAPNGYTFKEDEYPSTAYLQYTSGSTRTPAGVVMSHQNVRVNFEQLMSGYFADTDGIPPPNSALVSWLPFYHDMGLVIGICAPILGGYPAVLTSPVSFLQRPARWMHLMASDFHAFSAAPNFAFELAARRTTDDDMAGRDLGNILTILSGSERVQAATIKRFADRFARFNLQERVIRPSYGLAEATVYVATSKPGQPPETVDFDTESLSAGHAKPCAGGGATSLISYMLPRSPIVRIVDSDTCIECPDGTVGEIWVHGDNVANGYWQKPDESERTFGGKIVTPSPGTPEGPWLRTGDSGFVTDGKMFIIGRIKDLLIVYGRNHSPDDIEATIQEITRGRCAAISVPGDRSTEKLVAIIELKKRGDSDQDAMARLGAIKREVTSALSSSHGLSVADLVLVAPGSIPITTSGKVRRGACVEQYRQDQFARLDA
As to the kind of experiment: Fluorescence polarization aasay to screen for inhibitors that compete for the binding of FadD28 to a bisubstrate Measured in Biochemical System Using Plate Reader - 2147-01_Inhibitor_Dose_CherryPick_Activity. It is filed as functional, Mycobacterium tuberculosis H37Rv.

The nature of assay [2]: CCR5-tropic HIV-1 fusion blockers – cell-based, CCR5-tropic Env, dose response (AID 2279). It is filed as functional.
The nature of assay [3]: blockers of CRF-binding protein–CRF-R2 complex – cell-based, uHTS hits, 384-well, dose response (AID 651639). The following applies: read-out: IC50_Mean. It is filed as functional, Homo sapiens.
Assay [4] deals with T3, Corticotropin-releasing factor receptor 2/Corticotropin-releasing factor-binding protein (Homo sapiens, UniProt P24387+Q13324).
T3 sequence (Q13324 whole entry): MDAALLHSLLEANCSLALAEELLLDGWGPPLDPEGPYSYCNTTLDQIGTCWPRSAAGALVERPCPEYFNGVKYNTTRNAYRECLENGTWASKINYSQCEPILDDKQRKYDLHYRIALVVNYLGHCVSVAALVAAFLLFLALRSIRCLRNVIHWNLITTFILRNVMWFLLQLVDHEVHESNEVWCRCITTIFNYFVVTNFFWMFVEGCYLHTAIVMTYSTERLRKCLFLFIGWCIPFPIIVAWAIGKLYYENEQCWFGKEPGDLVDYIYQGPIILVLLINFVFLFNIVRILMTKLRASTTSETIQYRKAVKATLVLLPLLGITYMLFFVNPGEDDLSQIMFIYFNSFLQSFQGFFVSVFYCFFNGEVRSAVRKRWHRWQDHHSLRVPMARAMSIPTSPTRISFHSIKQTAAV
T3 sequence (P24387 whole entry): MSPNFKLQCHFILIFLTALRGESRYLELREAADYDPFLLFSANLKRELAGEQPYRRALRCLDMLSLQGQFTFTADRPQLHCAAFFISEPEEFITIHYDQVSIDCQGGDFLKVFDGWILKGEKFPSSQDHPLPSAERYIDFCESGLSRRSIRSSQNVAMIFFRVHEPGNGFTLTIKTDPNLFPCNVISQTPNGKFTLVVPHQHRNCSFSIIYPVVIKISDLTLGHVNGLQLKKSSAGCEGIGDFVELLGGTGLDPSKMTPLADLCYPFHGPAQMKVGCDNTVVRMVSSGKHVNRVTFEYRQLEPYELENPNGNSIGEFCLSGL
Put plainly: Dose Response confirmation of uHTS hits for small molecule antagonists of the CRF-binding protein and CRF-R2 receptor complex. It is filed as functional. The following applies: read-out: IC50_Mean.

Assay [5] concerns the target T3, Corticotropin-releasing factor receptor 2/Corticotropin-releasing factor-binding protein. Put plainly: activators of CRF receptor 2 with binding protein – uHTS hits, confirmation (AID 602473). It is filed as functional. The following applies: read-out: EC50_Mean.
Assay [6] has as its target FAD-linked sulfhydryl oxidase ALR (Homo sapiens, UniProt P55789). Put plainly: ALR-catalysed DTT oxidation blockers – biochemical, H2O2 detection, luminescence, cherry-pick, dose response (AID 493248).
The target of the next assay is Cytochrome P450 2C9 (Homo sapiens, UniProt P11712). Conditions: Potency.
Cytochrome P450 2C9, sequence (P11712 whole entry): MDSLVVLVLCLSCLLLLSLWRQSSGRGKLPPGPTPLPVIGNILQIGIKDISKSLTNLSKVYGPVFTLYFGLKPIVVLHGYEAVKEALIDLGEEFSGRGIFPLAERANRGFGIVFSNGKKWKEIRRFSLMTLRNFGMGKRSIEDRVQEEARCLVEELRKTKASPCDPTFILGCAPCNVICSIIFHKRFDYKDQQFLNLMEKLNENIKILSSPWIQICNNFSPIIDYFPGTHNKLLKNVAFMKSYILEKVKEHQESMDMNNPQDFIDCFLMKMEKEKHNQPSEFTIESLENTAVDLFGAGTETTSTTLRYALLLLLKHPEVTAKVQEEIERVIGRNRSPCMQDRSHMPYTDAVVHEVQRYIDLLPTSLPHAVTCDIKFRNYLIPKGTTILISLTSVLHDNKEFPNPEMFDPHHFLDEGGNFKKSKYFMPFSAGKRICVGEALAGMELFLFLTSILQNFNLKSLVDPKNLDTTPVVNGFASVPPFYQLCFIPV
The nature of assay [7]: HPDE-C7 pancreatic duct cell viability loss – fluorescence, HTS (AID 430). The following applies: Homo sapiens. It is filed as functional, cell-based.
A short description of assay [8]: viability loss of HPDE-C7K cells – cell-based, fluorescence, HTS, primary screen (AID 431). It counts as functional. Conditions: Homo sapiens.
A short description of assay [9]: Counterscreen for IDE inhibitors: Luminescence-based cell-based high throughput dose response assay to identify compounds that are cytotoxic to HEK cells. [Related pubchem assays: 434962 (Primary screen (IDE inhibitors in singlicate)), 449730 (Counterscreen (Cytotoxicity in triplicate)), 435028 (Confirmation (IDE inhibitors in triplicate)) …. It is filed as functional. Conditions: HEK293.

In a further assay the target is T4, Insulin-degrading enzyme (Homo sapiens, UniProt P14735).
T4 sequence (P14735 whole entry): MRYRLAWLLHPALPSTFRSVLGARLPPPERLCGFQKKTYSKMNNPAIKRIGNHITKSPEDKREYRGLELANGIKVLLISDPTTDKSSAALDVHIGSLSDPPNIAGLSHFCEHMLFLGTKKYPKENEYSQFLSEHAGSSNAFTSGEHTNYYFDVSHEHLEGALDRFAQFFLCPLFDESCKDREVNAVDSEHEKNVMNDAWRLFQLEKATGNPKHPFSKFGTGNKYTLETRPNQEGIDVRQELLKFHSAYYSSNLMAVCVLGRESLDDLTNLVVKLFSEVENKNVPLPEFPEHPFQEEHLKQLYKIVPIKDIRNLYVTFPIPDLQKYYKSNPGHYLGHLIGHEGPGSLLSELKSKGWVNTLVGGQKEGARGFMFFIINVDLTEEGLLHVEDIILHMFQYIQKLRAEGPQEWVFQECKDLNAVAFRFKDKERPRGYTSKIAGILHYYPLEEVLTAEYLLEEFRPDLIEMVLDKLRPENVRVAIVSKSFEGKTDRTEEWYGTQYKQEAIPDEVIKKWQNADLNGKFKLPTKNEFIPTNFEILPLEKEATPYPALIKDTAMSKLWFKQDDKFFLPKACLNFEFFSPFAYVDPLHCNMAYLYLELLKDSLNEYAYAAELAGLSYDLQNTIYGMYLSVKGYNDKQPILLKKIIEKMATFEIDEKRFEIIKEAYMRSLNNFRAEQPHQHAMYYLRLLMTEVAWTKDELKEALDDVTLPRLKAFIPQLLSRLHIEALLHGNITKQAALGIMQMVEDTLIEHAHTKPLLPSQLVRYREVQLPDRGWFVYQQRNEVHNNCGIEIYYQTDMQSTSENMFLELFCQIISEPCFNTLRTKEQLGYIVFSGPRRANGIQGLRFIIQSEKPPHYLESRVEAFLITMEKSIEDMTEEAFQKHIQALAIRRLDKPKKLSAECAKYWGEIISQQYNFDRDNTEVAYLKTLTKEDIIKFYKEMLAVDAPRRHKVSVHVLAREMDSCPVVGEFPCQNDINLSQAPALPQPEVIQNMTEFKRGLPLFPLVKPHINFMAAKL
As to the kind of experiment: Dose Response: Fluorescence polarization-based cell-based high throughput dose response assay for inhibitors of insulin-degrading enzyme (IDE). [Related pubchem assays: 434962 (Primary screen (IDE inhibitors in singlicate)), 449730 (Counterscreen (Cytotoxicity in triplicate)), 435028 (Confirmation (IDE inhibitors in triplicate)), 434984 (Summary …. It counts as functional.

FAD-linked sulfhydryl oxidase ALR, sequence (P55789 whole entry): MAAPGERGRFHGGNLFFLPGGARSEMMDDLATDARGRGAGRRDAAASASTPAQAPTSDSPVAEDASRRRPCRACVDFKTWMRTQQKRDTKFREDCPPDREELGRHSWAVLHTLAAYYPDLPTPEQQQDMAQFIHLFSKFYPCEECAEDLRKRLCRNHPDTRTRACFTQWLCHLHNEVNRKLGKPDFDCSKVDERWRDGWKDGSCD

As to `Cc1cc(C(=O)OCC(=O)c2cccc([N+](=O)[O-])c2)c2cccc(C)c2n1`, the IC50 on Prothrombin was > 50 µM (inconclusive).
As to `CCc1nccn1C(=O)c1cnn2c(C(F)F)cc(-c3ccccc3)nc12`, the IC50 at Prothrombin was 0.916 µM (active).
`CCCOc1ccc(-c2nc(Oc3ccc(OC)cc3)c3ccccc3n2)cc1`: the EC50 is > 500 µM (not active) in the assay with Streptococcus and 179 µM (active) at Streptokinase A.
`O=C(O)c1ccccc1NC(=O)c1ccccc1Nc1ccccc1`: the AC50 in assay [1] is > 100 µM (inactive); in [6] it was 9.47 µM (active). The IC50 in assay [2] was > 50 µM (active); in [3], > 20 µM (inactive); in assay [4] it was 5.46 µM (active). Besides, the EC50 in [5] was > 53 µM (inactive).
In the case of `CC(C)C[C@@H](CC(=O)N[C@H](CC(=O)N[C@@H]1CCNC[C@H]1C(=O)N[C@H](CC(=O)N[C@@H](CCC(=O)O)CC(=O)O)Cc1c[nH]c2ccccc12)C(C)C)NC(=O)[C@@H]1CCCC[C@H]1N`, the AC50 at Cytochrome P450 2C9 was 25.1 µM (inconclusive).
Take `Cc1ccc(-n2c(C)cc(C3N=C(N)Nc4nc5ccccc5n43)c2C)c(C)c1` (stereo not given): the values for the EC50 in assay [7] and in [8] were 11 µM (active) and 12.7 µM (active), respectively.
Turning to `COc1ccccc1N1CCN(C(=O)c2cc(N3C(=O)C4C5CCC(C5)C4C3=O)ccc2Cl)CC1` (stereo not given), the values for the IC50 (in assay [9]; against Insulin-degrading enzyme) were 27.8 µM (not active) and > 55.9 µM (not active), respectively.
